Patent US6613340B2, “Substantive hydrophobic cationic UV-absorbing compounds” (Galaxy Surfactants Ltd., priority 2001, dated 2003)

Assay: UV absorption (molar extinction coefficient)
Format: physicochemical
Settings: in methanol
Procedure: Ethyl p-methoxy cinnamate (206.0 g, 1.0 mole), N,N-dimethylpropyldiamine (306.0 g, 3.0 mole) and sodium methoxide (2.0 g) were charged in a pressure reactor. The air inside the reactor was flushed out by purging of nitrogen. The reaction mixture was then stirred at 180° C. (this generated pressure of 18 kg/cm^2) for 36 hours. The progress of reaction was monitored by disappearance of ethyl p-methoxy cinnamate on chromatography (TLC and HPLC). The TLC was performed on aluminium coated silica gel plates (Merck-60-F-254) and viewed with a UV lamp at 254 nm. HPLC was performed using reversed phase technique on a C-18 bonded (octadecyl silane) column and 60% aqueous methanol as mobile phase (1.0 ml/min) and detection at 280 nm. The excess amine was removed under vacuum.

molar extinction coefficient, ε (at 290 nm, in M-1cm-1 (unit assumed))	molar extinction coefficient, ε (at λmax 310 nm)	SMILES
24,224	–	COc1ccc(C=CC(=O)NCCCN(C)C)cc1 [p-methoxy cinnamidopropyldimethylamine]
–	25,000	CCCCCCCCCCCC[N+](C)(C)CCCNC(=O)C=Cc1ccc(OC)cc1.Cc1ccc(S(=O)(=O)[O-])cc1 [p-methoxy cinnamidopropyldimethyllauryl ammonium tosylate]
